In patent US12410155B2, “Salt form and crystal form of tetrahydrocyclohepta indazole compound” (Zhejiang Yangli Pharmaceutical Technology Co., Ltd., priority 2021, dated 2025):

Tested on: T-47D cells
Assay: T-47D cell proliferation inhibition assay (CTG)
Assay type: cell-based
Details: Homo sapiens, T47D, 1 nM estradiol
Method: (4) MCF-7, T-47D, and CAMA-1 Cell Proliferation Inhibition Assay
T-47D: RPMI-1640 (without phenol red) containing 10% charcoal-stripped serum (500 mL culture medium containing 450 mL RPMI-1640, 50 mL charcoal-stripped serum).
The inhibitory effect of the test compound of formula (I) on the proliferation of MCF-7, CAMA-1, and T-47D cells was analyzed. For MCF-7 cells, ten concentration gradients ranging from 100 nM to 0.0003815 nM were tested, with three replicates for each concentration. For CAMA-1 cells, nine concentration gradients ranging from 100 nM to 0.001526 nM were tested, also with three replicates for each concentration. For T-47D cells, nine concentration gradients ranging from 2 μM to 0.00512 nM were tested, with three replicates for each concentration. Each experiment was conducted twice independently.
The T-47D cells were treated with starvation medium for three days, followed by trypsin digestion, centrifugation, resuspension, and counting. Cell suspensions were prepared using the corresponding culture medium, and 40 μL of the suspension was added to each well of a 384-well plate. The plate was then incubated at 37° C. in a cell incubator with 5% CO2. The test compound of formula (I) was dissolved in DMSO to an initial concentration of 400 μM and subjected to a 5-fold serial dilution to achieve nine different concentrations. After overnight incubation, the diluted compound was further diluted with the corresponding cell culture medium. The resulting mixture was transferred to the respective wells of the cell plate, starting with a final concentration of 2 μM, followed by a 5-fold serial dilution to achieve nine concentrations. The positive control wells contained 2 μM fulvestrant, and 1 nM estradiol was added to the entire plate. The plate was mixed, centrifuged, and incubated at 37° C. in a cell incubator with 5% CO2 for the specified number of days according to the above table.
After incubation for the specified time, the cell culture plate was removed, and the CTG reagent was added. […] The readings were taken using the Envision multi-label analyzer. […]

FCCCN1CC[C@H](Nc2cnc(C3=C(CC(F)(F)F)CCCc4c3ccc3[nH]nc(F)c43)cn2)C1 [Compound of formula (I)]
IC50 (First experiment): 1.98 nM
IC50 (Mean ± SD): 2.35 ± 0.37 nM
IC50 (Second experiment): 2.71 nM
